Data on 7 compounds can be found in PubChem BioAssay (NCI).

Test systems include UACC-257 melanoma; CAKI-1 renal; SF-268 CNS; MCF7 breast; COLO 205 colon; A549 NSCLC; UACC-62 melanoma; SNB-19 CNS; HS 578T breast; A498 renal.
What all share (assay): growth of human tumour cells (NCI), 48 h

Where “and” joins values, the source holds several entries; their conditions need not be identical. Equal values may be shown once.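 Where inhibition never reached the appropriate level, the endpoint shown equals the highest concentration tested. Otherwise, values were interpolated linearly from a five-concentration, 48-hour dose response in 96-well plates. Abbreviation: GI50, concentration required for 50% inhibition of growth. The concentration for full growth arrest is given as TGI.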 Bounds are passed on as bounds.

As to `COc1cc(Nc2ncc3c(n2)-c2ccc(Cl)cc2C(c2c(F)cccc2OC)=NC3)ccc1C(=O)O`, the GI50 with UACC-257 melanoma is 18.2 µM; in the experiment with CAKI-1 renal it was 1.66 µM; with SF-268 CNS it was 9.51 µM; with MCF7 breast, 0.0469 µM; in the experiment on COLO 205 colon, 0.0651 µM; in the experiment with A549 NSCLC, 0.505 µM. Also, the GI50 in the experiment with UACC-62 melanoma was 3.9 µM; in the experiment with SNB-19 CNS, 13.3 µM; in the experiment on HS 578T breast it was 3.3 µM; in the experiment with A498 renal, 0.211 µM. Further, the TGI was over 92.5 µM in the experiment on UACC-257 melanoma; 29.3 µM in the experiment on CAKI-1 renal; 92.8 µM with SF-268 CNS; over 100 µM in the experiment on MCF7 breast; 16.7 µM in the experiment on COLO 205 colon; 37.8 µM with A549 NSCLC. Moreover, the TGI is 30.1 µM in the experiment on UACC-62 melanoma, over 100 µM in the experiment with SNB-19 CNS, over 71.3 µM in the experiment with HS 578T breast and 2.55 µM with A498 renal.

In the case of `CC1=C[C@H]2c3c(c(O)c(O)c4oc5cc(O)cc(O)c5c(=O)c34)[C@H](c3cc(O)c(O)c4oc5cc(O)cc(O)c5c(=O)c34)[C@H]2C(C)(C)C1`, the GI50 is 3.02 µM and 4.3 µM in the experiment with UACC-257 melanoma; 3.45 µM and 2.18 µM in the experiment on CAKI-1 renal; 2.14 µM and 2.09 µM with SF-268 CNS; 0.725 µM in the experiment on MCF7 breast; 2.65 µM in the experiment on COLO 205 colon; 0.686 µM and 1.67 µM with A549 NSCLC. In addition, the GI50 is 1.18 µM and 1.31 µM in the experiment with UACC-62 melanoma; 1.33 µM and 1.3 µM in the experiment on SNB-19 CNS; 2.07 µM and 1.49 µM in the experiment on HS 578T breast; 1.89 µM in the experiment with A498 renal. Further, the TGI with UACC-257 melanoma is 9.78 µM and 21.6 µM; in the experiment with CAKI-1 renal, 11.1 µM and 6.53 µM; with SF-268 CNS, 11.3 µM and 11.8 µM; in the experiment on MCF7 breast, 3.88 µM; in the experiment on COLO 205 colon it was 7.33 µM; in the experiment on A549 NSCLC, 6.17 µM and 24.9 µM. For the same compound, the TGI with UACC-62 melanoma was 2.59 µM and 3.07 µM; with SNB-19 CNS, 3.31 µM and 4.93 µM; in the experiment with HS 578T breast it was 8.9 µM and 7.39 µM; in the experiment on A498 renal it was 4.63 µM.

On to `Cc1sc2nc(-c3ccccn3)c(/C=N/N=C(N)N)n2c1C`, for which the GI50 in the experiment on UACC-257 melanoma was 10.7 µM; in the experiment on CAKI-1 renal it was 9.11 µM; in the experiment with SF-268 CNS it was 8.15 µM; with MCF7 breast it was 6.54 µM; with COLO 205 colon, 4.97 µM; with A549 NSCLC it was 12.6 µM. Also, the GI50 is 4.19 µM with UACC-62 melanoma, 7.52 µM with SNB-19 CNS, 12.7 µM in the experiment with HS 578T breast and 11.8 µM in the experiment with A498 renal. Further, the TGI with UACC-257 melanoma came out at 27 µM; in the experiment on CAKI-1 renal, 18.3 µM; with SF-268 CNS, 29.8 µM; in the experiment with MCF7 breast, 34 µM; in the experiment with COLO 205 colon, 11.4 µM; in the experiment with A549 NSCLC, 45 µM. Further, the TGI with UACC-62 melanoma stood at 10.4 µM; with SNB-19 CNS it was 19.5 µM; in the experiment on HS 578T breast, 27.7 µM; in the experiment on A498 renal, 24.4 µM.

`O=C1CC(c2ccccc2)Cc2nc3ccc(Cl)cc3cc21` (centres undefined): the GI50 in the experiment with UACC-257 melanoma was 15.6 µM; with CAKI-1 renal, 0.112 µM; in the experiment on SF-268 CNS, 6.04 µM; with MCF7 breast, 2.42 µM; in the experiment on COLO 205 colon, 0.344 µM; in the experiment on A549 NSCLC it was 0.451 µM. Further, the GI50 is 0.15 µM with UACC-62 melanoma, 0.462 µM in the experiment on SNB-19 CNS, 0.351 µM in the experiment with HS 578T breast and 0.0503 µM in the experiment with A498 renal. Further, the TGI in the experiment with UACC-257 melanoma was over 85.4 µM; in the experiment on CAKI-1 renal, over 100 µM; in the experiment on SF-268 CNS, over 100 µM; in the experiment on MCF7 breast it was over 100 µM; with COLO 205 colon, 3 µM; in the experiment with A549 NSCLC, over 100 µM. Moreover, the TGI is 35.5 µM in the experiment with UACC-62 melanoma, over 100 µM with SNB-19 CNS, over 100 µM with HS 578T breast and 0.401 µM in the experiment with A498 renal.

As for `COc1ccc(C(=O)Nc2ncc(Cc3ccc(F)cc3)s2)cc1`, the GI50 in the experiment with UACC-257 melanoma was 7.75 µM; in the experiment with CAKI-1 renal, 0.0446 µM; in the experiment on SF-268 CNS it was 0.481 µM; with MCF7 breast it was 0.0385 µM; in the experiment on COLO 205 colon, 0.0584 µM; with A549 NSCLC, 0.0678 µM. Further, the GI50 in the experiment on UACC-62 melanoma is 0.0469 µM; with SNB-19 CNS, 0.0963 µM; with HS 578T breast, 0.052 µM; in the experiment with A498 renal, 0.0204 µM. Moreover, the TGI in the experiment on UACC-257 melanoma is over 100 µM; with CAKI-1 renal, 30.7 µM; with SF-268 CNS it was over 100 µM; in the experiment on MCF7 breast it was over 100 µM; in the experiment on A549 NSCLC it was over 100 µM; in the experiment on UACC-62 melanoma, over 94.4 µM. The TGI is over 100 µM with SNB-19 CNS, 34.6 µM with HS 578T breast and 0.0898 µM in the experiment on A498 renal.

For the compound `CC(C)(C)c1ccc(C(=O)N/N=C/c2ccc(O)cc2O)cc1`, the GI50 in the experiment with UACC-257 melanoma was 0.557 µM; with CAKI-1 renal, 0.342 µM; with SF-268 CNS, 0.358 µM; with MCF7 breast, 0.322 µM; in the experiment with COLO 205 colon, 0.377 µM; in the experiment on A549 NSCLC, 0.594 µM. Moreover, the GI50 in the experiment on UACC-62 melanoma was 0.363 µM; in the experiment with SNB-19 CNS it was 0.825 µM; with HS 578T breast, 2.42 µM; with A498 renal, 1.27 µM. For the same compound, the TGI came out at 21.4 µM with UACC-257 melanoma; 1.99 µM in the experiment on CAKI-1 renal; 8.19 µM with SF-268 CNS; 12.7 µM with MCF7 breast; 6.76 µM in the experiment on COLO 205 colon; 35 µM in the experiment on A549 NSCLC. The TGI amounted to 3.2 µM in the experiment on UACC-62 melanoma, 17.9 µM with SNB-19 CNS, 27.3 µM with HS 578T breast and 6.09 µM in the experiment with A498 renal.

As for `CN(C)CCCNC(=O)c1cc2c3ccccc3[nH]c2c2ncccc12`, the GI50 in the experiment with UACC-257 melanoma was 15 µM; in the experiment with CAKI-1 renal, 7.83 µM; in the experiment with SF-268 CNS, 16.7 µM; in the experiment with MCF7 breast, 14.7 µM; in the experiment with COLO 205 colon, 4.43 µM; with A549 NSCLC, 14.1 µM. Moreover, the GI50 in the experiment with UACC-62 melanoma is 16 µM; with SNB-19 CNS, 17.4 µM; in the experiment with HS 578T breast it was 14.5 µM; in the experiment on A498 renal it was 14.8 µM. The TGI in the experiment with UACC-257 melanoma was 32.4 µM; with CAKI-1 renal it was 56.5 µM; in the experiment on SF-268 CNS, 64.1 µM; in the experiment on MCF7 breast, 66.8 µM; in the experiment with COLO 205 colon, 16.6 µM; in the experiment on A549 NSCLC, over 100 µM. The TGI in the experiment on UACC-62 melanoma was 30.1 µM; in the experiment with SNB-19 CNS, 85.3 µM; in the experiment with HS 578T breast it was 38.3 µM; with A498 renal, 31.7 µM.
